Experimental data reported in patent publication US10344279B2, “Methods for the prevention and the treatment of extracapillary glomerulonephritis” (INSERM (Institut National de la Sante et de la Recherche …, priority 2014, dated 2019).

Key:
[1] = tested on: NTS-challenged mice; assay: NTS-induced crescentic glomerulonephritis (RPGN): albuminuria, BUN, crescentic glomeruli; assay type: in vivo
Method: Podocyte-specific disruption of Stat3 mice were generated by crossing podocin-Cre positive mice (63) with Stat3 floxed mice (64) on C57BL6/J background. Their age-matched littermates with no deletion of Stat3 in any cells are considered as controls. […] Stattic (25 mg/kg) was administered in i.p. way every other day for 10 days. 10 weeks old 129S2/SvPasCr male mice were randomly treated with Stattic and were compared to vehicle-treated (DMSO) littermates.
The glomerulonephritis was induced on male mice (10-12 weeks of age) by intravenous injection of 15 μL of sheep anti-glomerular basement membrane (GBM) nephrotoxic serum (NTS), which was diluted with 85 μL of sterile phosphate buffer solution. Serum injections were repeated twice (on days 2 and 3) at 6 μL/g of body weight and 7 μL/g respectively.
Urinary creatinine and blood urea nitrogen (BUN) concentrations were analyzed by a standard colorimetric method (Olympus AU400) at the Biochemistry Laboratory of Institut Claude Bernard (IFR2, Faculté de Médecine Paris Diderot). Urinary albumin excretion was measured using a specific ELISA assay for quantitative determination of albumin in mouse urine (CellTrend GmbH).
Kidneys were harvested and fixed in 4% formal. Paraffin-embedded sections (5 μm thick) were stained by Masson's trichrome to evaluate kidney morphology and determine proportion of crescentic glomeruli by a blinded examination on at least 50 glomeruli per section.
For preventive strategy, antagomiR treatment (12 mg/kg) started 3 days before NTS injection. AntagomiRs (VBC biotech, Vienna) were delivered by retro-orbital i.v. injections under brief anesthesia. Second and third injections were performed on days 1 and 3 with NTS injection. For curative strategy, antagomir were injected on days 4, 5 and 8 after NTS. A scramble antagomiR (Antagomir-Control) was used as control. The sequences were obtained from previously published manuscript (66). In the miR-92 antagomir and control antagomir, the 2′O RNA base are methylated followed by first two bases and last 3 bases are phosphorothiated to increase the stability of antagomir from degradation. In addition, a cholesterol-TEG was added at the 3′ for easy entry of antagomir into the cells. AntagomiR-Control (SEQ ID NO: 7, anti-miR-ctrl): 5′-[…]-3′ and antagomiR-92a (SEQ ID NO: 8, anti-miR-92a): 5′-[…]-3′ as shown to be effective after in vivo administration in kidneys (34, 67). Saline-treated mice were used as control of the scramble antagomiR.

[2] = tested on: primary podocytes; assay: Podocyte outgrowth (proliferation) assay from isolated decapsulated glomeruli; assay type: cell-based, mouse; settings: for podocyte outgrowth area / proliferation of cultured primary podocytes: Pod-Stat3 WT podocytes treated with Stattic, quantified at day 4
Method: Mouse kidneys were extracted, minced, and digested in 2 mg/mL collagenase I solution (Gibco) in RPMI 1640 (Invitrogen) at 37° C. for 3 minutes, then filtered through a 70-μm cell strainer and one more through a 40-μm cell strainer. The homogenate was centrifuged at 720 g for 6 minutes and cells plated. Isolated glomeruli were then collected in Phosphosafc extraction buffer (Novagen) for protein extraction or in RLT extraction buffer (Qiagen) for total RNA extraction. For podocyte primary culture, freshly isolated glomeruli were plated in 6-plate dishes in RPMI 1640 (Invitrogen) supplemented by 10% Fetal Calf Serum (Biowest) and 1% penicillin-streptomycin (Invitrogen). The outgrowth of podocytes started between days 2 and 3. Podocyte outgrowth area was quantified at day 4 using ImageJ software. After 4 days of primary culture, podocytes were trypsinized then plated into μ-Dish 35 mm high with Culture-Insert (Ibidi). Ibidi's wounding inserts were used for cell migration studies. The coverage of the 500-μm gap was assessed after 12 hours of culture and podocyte migration area was quantified using ImageJ software. The effects of HB-EGF (10 ng/mL, Preprotech) or AG1478 (1 μM, Calbiochem) or anti-mIL-6 monoclonal antibody MP5-20F3 (10 μg/mL, eBiosciences) or Stattic (2 μM, Calbiochem) on differentiated podocytes was applied during 16 hours. After stimulation, podocytes were scrapped in Phosphosafe buffer for protein extraction or in RLT buffer for total RNA extraction. […] Anti-miR-Control#1 was used as control (All from Ambion, 50 nM).

[3] = tested on: Ki67 and PCNA mRNA expression in primary podocytes; assay: RT-PCR of proliferation markers Ki67 and PCNA in primary podocyte cultures; assay type: cell-based, mouse
Method: After 4 days of primary culture, podocytes were trypsinized then plated into μ-Dish 35 mm high with Culture-Insert (Ibidi). Ibidi's wounding inserts were used for cell migration studies. The coverage of the 500-μm gap was assessed after 12 hours of culture and podocyte migration area was quantified using ImageJ software. The effects of HB-EGF (10 ng/mL, Preprotech) or AG1478 (1 μM, Calbiochem) or anti-mIL-6 monoclonal antibody MP5-20F3 (10 μg/mL, eBiosciences) or Stattic (2 μM, Calbiochem) on differentiated podocytes was applied during 16 hours. After stimulation, podocytes were scrapped in Phosphosafe buffer for protein extraction or in RLT buffer for total RNA extraction. Total RNA extraction of mice glomeruli was performed using an Rneasy Minikit (Qiagen) and reverse transcribed into cDNA using the Quantitect Reverse Transcription kit (Qiagen) according to the manufacturer's protocol. cDNA and standard were amplified in Maxima SYBR Green/Rox qPCR mix (Fermentas) on an ABI PRISM thermo cycler. The comparative method of relative quantification (2-ΔΔCT) was used to calculate the expression level of each target gene, normalized to GAPDH. The oligonucleotide sequences are available upon request. The data are presented as the fold change in gene expression. […] Anti-miR-Control#1 was used as control (All from Ambion, 50 nM).

[4] = Stattic 25 mg/kg i.p. every other day, day 10 after NTS, 129S2 mice
[5] = antagomiR 12 mg/kg i.v., preventive strategy, 10 days after NTS, vs anti-miR-ctrl or vehicle

Compound | albuminuria (urinary albumin excretion rate) [1, 4] | alleviation of the rise in blood urea nitrogen (BUN) concentrations [1, 4] | proportion of crescentic glomeruli [1, 4] | podocyte outgrowth area / proliferation of cultured primary podocytes [2] | podocyte outgrowth area / proliferation of cultured primary podocytes ([2]; listed as STAT3 inhibitor) | Ki67 expression in primary podocytes ([3]; Stattic 2 μM for 16 hours) | PCNA expression in primary podocytes ([3]; Stattic 2 μM for 16 hours) | kidney dysfunction (blood urea nitrogen concentrations) [1, 5] | urinary albumin excretion [1, 5] | glomerular crescents formation ([1]; antagomiR 12 mg/kg i.v., preventive strategy, vs NTS+anti-miR-ctrl, P<0.05) | results in curative strategy (miR-92a expression, albuminuria, BUN, p57-positive cells) ([1]; antagomir injection on days 4, 5 and 8 after NTS, read at day 10) | podocyte outgrowth ([2]; anti-miR-92a transfected (50 nM), over 4 days, vs control cells or anti-miR control) | Ki67 mRNA level ([3]; anti-miR-92a transfected (50 nM) primary podocytes, vs control cells or anti-miR control)
O=[N+]([O-])c1ccc2c(c1)S(=O)(=O)C=C2 [Stattic] | trend to decreased | 50% | reduced | inhibited | significantly reduced | markedly blunted | markedly blunted | – | – | – | – | – | –
anti-miR-92a: 2′O-methylated, end-phosphorothioated antagomir with 3′ cholesterol-TEG, SEQ ID NO: 8, 5′-CAGGCCGGGACAAGUGCAAUA-3′ (VBC biotech) (listed as RNA, chemistry not fully specified) | – | – | – | – | – | – | – | strong decrease | strong decrease | -44% | validated | decrease | decrease
